From PMC11475664, “Alpha-glucosidase inhibitory compounds from Vietnamese lichen Usnea baileyi: in vitro and in silico aspects” (RSC Advances, 2024)
≈ marks a conversion by molar mass, not a printed value. Where two headings read alike, the source gives them in different places.

Key:
[1] = test system: alpha-glucosidase; conditions: cited from earlier work
[2] = molecular target: yeast alpha-glucosidase; test: Alpha-glucosidase inhibition assay; type: biochemical; conditions: for IC50: yeast alpha-glucosidase
Text: Evaluation of the inhibitory activity of compounds against yeast alpha-glucosidase followed a previous procedure.[30]

[3] = test system: Hek293 cells; test: Cytotoxicity assay (MTT, 72 h) on Hek293; type: cell-based; conditions: Homo sapiens, read-out: Hek293 IC50
Description: (§1) Table S2. Cytotoxicity of compounds 1-6, 11, 1a-1e, and 6a […]
(§2) The method used followed that reported by Nguyen et al. (2022). Briefly, HepG2 and Hek293 cells in a complete medium containing DMEM (HyClone, Cytiva, USA) and 10% fetal bovine serum (FBS) were seeded into a 96-well plate at 5 × 10^4 cells per well. The cells were then incubated at 37°C with 5% CO2. After culturing for 24 h, the old medium was replaced by diluted compounds (in DMSO), positive control Doxorubicin (DOX, Fesenius Kabi, Germany), and negative control dimethyl sulfoxide (DMSO, Sigma-Aldrich, Germany). After 72 h of treatment, MTT (3-(4,5-Dimethyl-2-thiazolyl)-2,5-diphenyl-2H-tetrazolium bromide) was added into each well of the test plate. The plate was incubated at 37°C with 5% CO2 for another 3 h. DMSO was used to dissolve the crystals from the interaction between MTT and viable cells. The absorbance of samples was read at 570 nm by the ELISA Reader (BioTek, USA). Cell death (% inhibition) was estimated by the following formula:
(§3) % Inhibition = 100 − [100 × (A Sample – A B1)/(ADMSO – A B2)]
(§4) Where, ASample: Absorbance of sample, ADMSO: Absorbance of negative control, AB1: Absorbance of blank of sample, AB2: Absorbance of blank of DMSO. The IC50 value and the inhibitory chart were respectively calculated and built using GraphPad Prism software (version 8.0.1, Insightful Science LLC, […]
(§5) Ref: Nguyen HH, Aree T, Nguyen HT, et al. Diorygmones A-B, two new guaiane-sesquiterpenes from the cultured lichen mycobiont of Diorygma sp. Natural Product Research. Published online February 1,

[4] = test system: HepG2 cells; test: Cytotoxicity assay (MTT, 72 h) on HepG2; type: cell-based; conditions: Homo sapiens, read-out: HepG2 IC50
Description: as §1, §2, §3, §4, §5

[5] = Cytotoxicity assay (MTT, 72 h) on Hek293; type: cell-based; conditions: human
Description: as §1, §2, §3, §4, §5

[6] = Cytotoxicity assay (MTT, 72 h) on HepG2; type: cell-based; conditions: human
Description: as §1, §2, §3, §4, §5

[7] = test system: alpha-glucosidase; test: Inhibitory type assay of 1e on alpha-glucosidase (Lineweaver–Burk plots, pNPG substrate); type: biochemical, yeast
Description: Replacing the imine group in 1a and 1b for the aldehyde group in 1 enhances the activity. […] In contrast, the bromine atoms within a depsidone skeleton (1c, 1d, and 6a) decrease the activity. […] At concentrations of 0, 1.82, 3.64, 7.28, and 14.57 μM of 1e, the activity was evaluated. […] This type was identical to that of parmosidone F.[18]
The mechanisms of inhibition of alpha-glucosidase by 1e were determined by Lineweaver–Burk plots using methods similar to those reported in the literature.[18] Enzyme inhibition due to various concentrations of 1e was evaluated by monitoring the effects of different substrate concentrations. For Lineweaver–Burk double reciprocal plots 1/enzyme velocity (1/V) vs. 1/substrate concentration (1/[S]), the inhibition type was determined using various concentrations of pNPG (1 mM, 2 mM, and 4 mM) as a substrate in the presence of different concentrations of the test compounds (0, 1.82, 3.64, 7.28, and 14.57 μM for 1e). The experiments were carried out in 3 replicates. The mixtures were incubated at 37 °C and the optical density was measured at 405 nm every 1 minutes for 30 minutes with the ELx800 Absorbance Microplate Reader (BioTek Instruments, Inc., Vermont, USA). Optimal concentrations of the tested compounds were chosen based on the IC50 values. […]

[8] = read-out: IC50, alpha-glucosidase inhibition of related synthetic analogs (Fig. 8)
[9] = read-out: IC50, alpha-glucosidase inhibition, previously reported
[10] = normal cells Hek293, MTT, 72 h, Table S2
[11] = liver cancer cell line HepG2, MTT, 72 h, Table S2
[12] = read-out: IC50, alpha-glucosidase inhibition of natural analogs of 1e (Fig. 9)

Row | Compound | IC50 [2] [µM] | IC50 [3, 10] [µg/mL] | IC50 [4, 11] [µg/mL] | further results
1 | Cc1cc(O)c(/C=N/Nc2ccc(Br)cc2)c2c1C(=O)Oc1c(CO)c(O)c3c(c1O2)C(O)OC3=O (stereo not drawn) [I, (E)-11-((2-(4-bromophenyl)hydrazineylidene)methyl)-1,4,10-trihydroxy-5-(hydroxymethyl)-8-methyl-7H-benzo[6,7][1,4]dioxepino[2,3-e]isobenzofuran-3,7(1H)-dione] | – | – | – | inhibition type, previously reported [1]: non-competitive inhibitors; IC50 [1, 8]: 11.3 µM
2 | Cc1cc(O)c(/C=N/Nc2ccc(Cl)cc2)c2c1C(=O)Oc1c(CO)c(O)c3c(c1O2)C(O)OC3=O (stereo not drawn) [II] | – | – | – | IC50 [1, 8]: 19.4 µM
3 | COc1cc(C)c(C(=O)Oc2cc(C)c(C(=O)O)c(O)c2C)c(O)c1C [Compound 8, barbatic acid] | > 200 | – | – | –
4 | Cc1cc(O)c(C=O)c2c1C(=O)Oc1c(CO)c(O)c(C(=O)O)c(C)c1O2 [Compound 1, protocetraric acid] | 70.6 ± 1.2 | 35.7 ± 2.4 (≈ 95.5 µM) | 63.6 ± 0.06 (≈ 170 µM) | IC50 [1, 9]: 81.6 µM
5 | Cc1cc(O)c(/C=N/Nc2ccc(Br)cc2)c2c1C(=O)Oc1c(CO)c(O)c(C(=O)O)c(C)c1O2 [Compound 1b, (E)-4-((2-(4-bromophenyl)hydrazono)methyl)-3,8-dihydroxy-9-(hydroxymethyl)-1,6-dimethyl-11-oxo-11H-dibenzo[b,e][1,4]dioxepine-7-carboxylic acid] | 20.7 ± 1.1 | > 100 | > 100 | –
6 | COC(=O)c1c(C)c(Cc2c(O)c(C(=O)O)c(C)c3c2Oc2c(C=O)c(O)cc(C)c2C(=O)O3)c(O)c(C=O)c1O [Parmosidone J] | – | – | – | IC50 [1, 12]: 10.7 µM
7 | Cc1cc(O)c(/C=N/Nc2ccccc2)c2c1C(=O)Oc1c(CO)c(O)c(C(=O)O)c(C)c1O2 [Compound 1a, (E)-3,8-dihydroxy-9-(hydroxymethyl)-1,6-dimethyl-11-oxo-4-((2-phenylhydrazono-)methyl)-11H-dibenzo[b,e][1,4]dioxepine-7-carboxylic acid] | 25.9 ± 2.2 | > 100 | > 100 | –
8 | COc1cc(C)c2c(c1C=O)Oc1c(c(C)c(O)c3c1C(OC)OC3=O)OC2=O (stereo not drawn) [Compound 2, 8′-methylstictic acid] | 41.8 ± 1.5 | > 100 | > 100 | –
9 | Cc1cc(O)cc(O)c1Cc1c(O)c2c(c3c1OC(=O)c1c(C)cc(O)c(C=O)c1O3)C(O)OC2=O (stereo not drawn) [Parmosidone F] | – | – | – | inhibition type, previously reported [1]: mixed-mode inhibitor; IC50 [1, 12]: 2.2 µM
10 | COC(=O)[C@]12Oc3ccc(-c4ccc5c(c4O)C(=O)[C@@H]4CC[C@@H](C)[C@H](O)[C@]4(C(=O)OC)O5)c(O)c3C(=O)C1=C(O)C[C@H](C)[C@H]2O [Compound 11, eumitrin A1] | 130 ± 2 | – | – | IC50 ([3]; HEK293, 72 h): 37.6 ± 4.3 µg/mL (≈ 60.2 µM); IC50 at 72 h [5]: 60.3 µM; IC50 ([4]; HepG2, 72 h): 38.8 ± 0.5 µg/mL (≈ 62.1 µM); IC50 at 72 h [6]: 62.1 µM
11 | Cc1c(Br)c(O)c(Br)c2c1C(=O)Oc1c(CO)c(O)c(Br)c(C=O)c1O2 [III] | – | – | – | IC50 [1, 8]: 16.4 µM
12 | Cc1cc(O)cc(O)c1Cc1c(O)c(C(=O)O)c(C)c2c1Oc1c(C=O)c(O)cc(C)c1C(=O)O2 [Parmosidone K] | – | – | – | IC50 [1, 12]: 6.1 µM
13 | COc1cc(C)c2c(c1C=O)Oc1c(C=O)c(C(=O)O)c(O)c(C)c1OC2=O [Compound 4, 4,6-diformyl-8-hydroxy-3-methoxy-1,9-dimethyl-11-oxo-11H-dibenzo[b,e][1,4]dioxepine-7-carboxylic acid] | > 200 | > 100 | > 100 | –
14 | Cc1c(Br)c(O)c(Br)c2c1Oc1c(Br)c(O)c(Br)c(C)c1C(=O)O2 [Compound 1c, 2,4,7,9-tetrabromo-3,8-dihydroxy-1,6-dimethyl-11H-dibenzo[b,e][1,4]dioxepin-11-one] | 80.7 ± 1.8 | 58.9 ± 2.84 (≈ 100 µM) | 76.5 ± 1.07 (≈ 130 µM) | –
15 | CC(=O)C=Cc1c(O)cc(C)c2c1Oc1c(c(Cc3c(C)cc(O)cc3O)c(O)c3c1C(O)OC3=O)OC2=O (stereo not drawn) [Parmosidone G] | – | – | – | IC50 [1, 12]: 4.3 µM
16 | COc1cc(C)c(C(=O)Oc2cc(C)c(C(=O)O)c(O)c2C)c(OC)c1C [Compound 7, diffractaic acid] | > 200 | – | – | IC50 [1, 9]: 420 µM

Row | Compound | IC50 [2] [µM] | IC50 [3, 10] [µg/mL] | IC50 [4, 11] [µg/mL] | further results
17 | Cc1c(Br)c(O)c(C=O)c2c1C(=O)Oc1c(Br)c(O)c3c(c1O2)C(O)OC3=O (stereo not drawn) [V] | – | – | – | IC50 [1, 8]: 14.3 µM
18 | Cc1cc(OC(=O)c2c(C)cc(O)cc2O)cc(O)c1Cc1c(O)c(C(=O)O)c(C)c2c1Oc1c(C=O)c(O)cc(C)c1C(=O)O2 [Parmoferone A] | – | – | – | IC50 [1, 12]: 18.1 µM
19 | Cc1c(Br)c(O)c(Br)c2c1C(=O)Oc1c(CO)c(O)c3c(c1O2)C(O)OC3=O (stereo not drawn) [IV] | – | – | – | IC50 [1, 8]: 15.6 µM
20 | Cc1c(O)c2c(c3c1OC(=O)c1c(C)c(Br)c(O)c(C=O)c1O3)C(O)OC2=O (stereo not drawn) [Compound 6a, 9-bromo-1,4,10-trihydroxy-5,8-dimethyl-3,7-dioxo-3,7-dihydro-1H-benzo[6,7][1,4]-dioxepino[2,3-e]isobenzofuran-11-carbaldehyde] | 102 ± 1.8 | 88.2 ± 2.02 (≈ 195 µM) | > 100 | –
21 | Cc1cc(O)c(C=O)c2c1C(=O)Oc1c(C)c(O)c3c(c1O2)C(O)OC3=O (stereo not drawn) [Compound 6, norstictic acid] | 50.7 ± 2.7 | > 100 | > 100 | –
22 | CC(=O)OCc1c(O)c(Br)c(C)c2c1OC(=O)c1c(C)c(Br)c(O)c(Br)c1O2 [Compound 1d, (2,4,7-tribromo-3,8-dihydroxy-1,6-dimethyl-11-oxo-11H-dibenzo[b,e][1,4]dioxep-in-9-yl)methyl acetate] | 91.8 ± 1.5 | 61.1 ± 2.71 | 86.7 ± 0.68 | –
23 | Cc1cc(O)c(C=O)c(O)c1Cc1c(O)c(C(=O)O)c(C)c2c1Oc1c(C=O)c(O)cc(C)c1C(=O)O2 [Cristifone B] | – | – | – | inhibition type, previously reported [1]: non-competitive inhibitors; IC50 [1, 12]: 18.4 µM
24 | COC(=O)c1c(C)c(Cc2c(O)cc(C)c3c2Oc2c(C=CC(C)=O)c(O)cc(C)c2C(=O)O3)c(O)c(C)c1O [Parmosidone H] | – | – | – | IC50 [1, 12]: 17.6 µM
25 | Cc1cc(OC(=O)c2c(O)cc(O)c(Cc3c(O)c(C(=O)O)c(C)c4c3Oc3c(C=O)c(O)cc(C)c3C(=O)O4)c2C)cc(O)c1C(=O)O [Cristifone A] | – | – | – | IC50 [1, 12]: 21.5 µM
26 | COc1c(C)c2c(c(C)c1Cl)Oc1c(C)c(O)c(Cl)c(C)c1C(=O)O2 [Compound 5, vicanicin] | > 200 | > 100 | > 100 | –
27 | Cc1cc(O)c(C=O)c(O)c1 [Compound 9, atranol] | > 200 | – | – | IC50 [1, 9]: 559 µM
28 | COc1cccc2c1C(=O)c1c(O)c3c(c(O)c1C2=O)C[C@@](O)(C(=O)CO)C[C@@H]3O[C@H]1C[C@H](N)[C@H](O)[C@H](C)O1 [Doxorubicin, reference compound] | – | 2.13 ± 0.01 (≈ 3.92 µM) | 1.89 ± 0.03 (≈ 3.48 µM) | –
29 | Cc1cc(O)c(C=O)c2c1C(=O)Oc1c(C)c(C(=O)O)c(O)c(Cc3c(O)cc(O)c(Cc4c(O)c(C(=O)O)c(C)c5c4Oc4c(C=O)c(O)cc(C)c4C(=O)O5)c3C)c1O2 [Compound 1e, 6,6′-((4,6-dihydroxy-2-methyl-1,3-phenylene)bis(methylene))bis(4-formyl-3,7-dihydroxy-1,9-dimethyl-11-oxo-11H-dibenzo[b,e][1,4]dioxepine-8-carboxylic acid)] | 10.4 ± 0.4 | > 100 | > 100 | alpha-glucosidase inhibition, fold stronger than 1 ([2]; compared with 1): seven-fold; inhibition type ([7]; Lineweaver–Burk plots, 0, 1.82, 3.64, 7.28, 14.57 μM of 1e): mixed-mode inhibitor; Ki ([7]; secondary plot, Fig. 4B, read-out: Ki, inhibition constant of binding with the free enzyme): 6.65 ± 0.48 µM
30 | Cc1c(Cl)c(O)c(C=O)c(O)c1C(=O)O [Compound 10, 5-chlorohaematommic acid] | > 200 | – | – | –
31 | COc1cc(C)c2c(c1C=O)Oc1c(c(C)c(O)c3c1C(O)OC3=O)OC2=O (stereo not drawn) [Compound 3, stictic acid] | 30.4 ± 1.4 | 33.9 ± 1.6 (≈ 87.8 µM) | > 100 | –
